Results published in article PMC12505967, “Inhibition of the assembly of Plasmodium Hsp70-1 and Hsp40 complex blocks DNA replication by destabilizing ribonucleotide reductase subunit-2” (mBio, 2025).

Key:
[1] = target: T1, PfHsp70-1 + PfYdj1 (Plasmodium falciparum, UniProt Q8IB24); experiment: EnzChek phosphate ATPase assay; type: biochemical; conditions: inhibits PfYdj1-stimulated ATP hydrolysis; 1 and 20 µM compound (21 µM in figure legend); 50 µM ATP, 2 µM each protein, 2 mM MgCl2, pH 7.5, 37°C
T1 construct: gene PF3D7_0818900; both full length, N-terminal His6 tag (pET28a), E. coli, Ni-NTA; tags kept; with HSP40, subfamily A

[2] = target: T2, PfHsp70-1 (Plasmodium falciparum, UniProt Q8IB24); type: biochemical; conditions: basal ATPase without cochaperone; 50 µM ATP, 2 µM protein, 2 mM MgCl2, pH 7.5, 37°C
T2 construct: gene PF3D7_0818900; full length, N-terminal His6 tag (pET28a), E. coli Rosetta (DE3), Ni-NTA; tag kept

[3] = target: Recombinant PfHsp70-1 (His6-tagged, purified) (Plasmodium falciparum 3D7) (UniProt Q8IB24); conditions: scale: µM min^−1 per µM concentration of the enzyme

CC1=C(C(=O)OCc2ccccc2)C(c2ccc(-c3ccccc3)cc2)NC(=O)N1CCCCCC(=O)O (stereo not drawn) [116-9e]
EnzChek phosphate ATPase assay [1]: observed a reduced stimulation of PfYdj1-mediated ATP hydrolysis of PfHsp70-1 in a dose-dependent manner

Nc1ncnc2c1ncn2[C@@H]1O[C@H](COP(=O)(O)OP(=O)(O)OP(=O)(O)O)[C@@H](O)[C@H]1O [ATP]
EnzChek phosphate ATPase assay [2]: PfHsp70-1 showed a basal level of ATPase activity

B1: Recombinant PfSis1 (His6-tagged, purified) (natural protein)
chain: MGKDYYSILGVSRDCTTNDLKKAYRKLAMMWHPDKHNDEKSKKEAEEKFKNIAEAYDVLADEEKRKIYDTYGEEGLKGSIPTGGNTYVYSGVDPSELFSRIFGSDGQFSFTSTFDEDFSPFSTFVNMTSRKSRPSTTTNINTNNYNKPATYEVPLSLSLEELYSGCKKKLKITRKRFMGTKSYEDDNYVTIDVKAGWKDGTKITFYGEGDQLSPMAQPGDLVFKVKTKTHDRFLRDANHLIYKCPVPLDKALTGFQFIVKSLDNRDINVRVDDIVTPKSRKIVAKEGMPSSKYPSMKGDLIVEFDIVFPKSLTSEKKKIIRETLANTF
PfSis1-induced rate of ATP hydrolysis of PfHsp70-1 without and with 1 µM and 20 µM 116-9e (0.37 without, 0.322 at 1 µM, 0.087 at 20 µM) [3]: 0.37
